Literature values in PMC3009454 (Bioconjugate chemistry, 2009).

Tested on: primary melanoma and pulmonary melanoma metastases
Settings: small animal SPECT/CT

^111In-1,4,7,10-tetraazacyclododecane-1,4,7,10-tetraacetic acid-c[Lys-Nle-Glu-His-DPhe-Arg-Trp-Gly-Arg-Pro-Val-Asp] (sidechain bridge or staple) [^111In-DOTA-GlyGlu-CycMSH]
SPECT/CT visualization of primary melanoma and pulmonary melanoma metastases: clearly visualized
